Values joined by “and” are separate entries in the source; they are usually repeats but may differ in a detail not shown here. Equal entries are not always repeated. Where two headings read alike, the source gives them in different places.
How the values were obtained:
[1] = molecular target: HIV-1 NefNL4-3 (Human immunodeficiency virus type 1 group M subtype B, UniProt P03406, A33V/T15A/T51N/V11I); assay: Surface plasmon resonance binding to recombinant full-length Nef (NL4-3); details: for T, minutes (residence time): 2-step induced fit, T = 1/koff2; for RU30/RUNef (extent of binding): response units at 30 μM relative to Nef immobilized on the SPR chip
[2] = system: HIV-1NL4-3; assay: HIV-1 infectivity assay in TZM-bl reporter cell line (LTR-luciferase, 48 h); format: cell-based; details: for inhibition at 1 µM: Human immunodeficiency virus 1, TZM-bl
Experimental: (§1) In particular, the tables show antiretroviral activity as percent inhibition of HIV-1 infectivity at 1 μM. In brief, this assay uses the TZM-bl reporter cell line, which carries a stable copy of the HIV-1 LTR coupled to luciferase. Cells are infected with HIV-1NL4-3 in the presence and absence of each compound, and luciferase activity is measured 48 h later. This assay measures early events in the HIV-1 life cycle, including viral entry, reverse transcription, nuclear entry and integration, and viral transcription. All assays include control cells infected with Nef-defective HIV-1, which replicates at 30-50% of wild-type in this system. Results are normalized to percent inhibition relative to DMSO-treated control cells infected with wild-type HIV-1 (0% inhibition) and DMSO-treated cells infected with Nef-defective HIV-1 (100% of the Nef-dependent effect)—see column 3. In addition, cell viability is measured in the TZM-bl cell line in the presence of each test compound and in the absence of HIV-1 infection, using the Cell Titer Blue cell viability assay (Promega; column 4).

[3] = system: TZM-bl cell line; format: cell-based
Experimental: as §1

[4] = KD, M, Table 4, SPR fit 2-step induced fit, KD = koff/kon × koff2/(koff2 + kon2)
[5] = Nef NL4-3 Binding, SPR 1:1 or 2-site fitting KD2, Table 1, 2-site fit, second component
[6] = Nef NL4-3 Binding, SPR 2-state fitting KD, Table 1, 2-step induced-fit model
[7] = 1.0 μM, TZM-bl reporter cell line, Table 4, read-out: % Infectivity Inhibition
[8] = 48 h, Table 1, TZM-bl cells, 1 μM, 48 h, 100% = Nef-defective HIV-1, read-out: HIV-1 Infectivity % Inhibition Norm. to Δ-Nef @ 1 μM
[9] = read-out: Nef NL4-3 Binding, SPR 1:1 or 2-site fitting KD2, Table 1, 2-site fit, second component
[10] = Table 1, 1:1 Langmuir fit where the KD2 cell says '1 to 1 fitting', else 2-site fit

| SMILES | Kd [1] | Kd [1, 4] [nM] | Kd [1, 5] [nM] | Kd [1, 6] [nM] | T, minutes (residence time) ([1]; Table 4) | RU30/RUNef (extent of binding) [1] | inhibition at 1 µM [2, 7] [%] | inhibition at 1 µM [2, 8] [%] | % Cell Viability ([3]; human, 1 μM) [%] | Percent Viability @ 1 μM (TZM-bl cells) ([3]; human, 1 μM) [%] | Kd [1, 9] [nM] | Nef NL4-3 Binding, SPR 1:1 or 2-site fitting KD1 [1, 10] | Kd ([1]; Table 1, 1:1 Langmuir fit where the KD2 cell says '1 to 1 fitting', else 2-site fit, read-out: Nef NL4-3 Binding, SPR 1:1 or 2-site fitting KD1) [nM] | HIV-1 Infectivity % Inhibition Norm. to Δ-Nef @ 1 μM ([2]; Table 1, TZM-bl cells, 1 μM, 48 h, 100% = Nef-defective HIV-1) [%] | Percent Viability @ 1 μM (TZM-bl cells) [3] [%] | Kd ([1]; Table 4, SPR fit 2-step induced fit, KD = koff/kon × koff2/(koff2 + kon2)) [nM] | Kd ([1]; read-out: Nef NL4-3 Binding, SPR 1:1 or 2-site fitting KD1, Table 1, 1:1 Langmuir fit where the KD2 cell says '1 to 1 fitting', else 2-site fit) [nM] | Kd ([1]; read-out: Nef NL4-3 Binding, SPR 2-state fitting KD, Table 1, 2-step induced-fit model) [nM] |
| --- | --- | --- | --- | --- | --- | --- | --- | --- | --- | --- | --- | --- | --- | --- | --- | --- | --- | --- |
| CC(C)(C)OC(=O)N1CCC[C@H]1c1nn(-c2nc3ccccc3[nH]2)c(O)c1CCc1ccc(F)cc1 (stereo in doubt) [Compound I-205, tert-butyl 2-[1-(1H-1,3-benzodiazol-2-yl)-4-[2-(4-fluorophenyl)ethyl]-5-hydroxy-1H-pyrazol-3-yl]pyrrolidine-1-carboxylate] | 1090 nM | 208 | 1100 | 208 | 9.98E + 01 minutes | 5.81E- 03 | 14.3 | 14.3 | 95.6 | 95.6 |  |  |  |  |  |  |  |  |
| Oc1c(CCc2ccc(F)cc2)c(-c2ccc(C(F)(F)F)cc2)nn1-c1nc2ccccc2[nH]1 [Compound I-106, 1-(1H-1,3-benzodiazol-2-yl)-4-[2-(4-fluorophenyl)ethyl]-3-[4-(trifluoromethyl)phenyl]-1H-pyrazol-5-ol] | 20200 nM |  | 3260 |  |  |  |  | 98.2 |  | 84.5 |  |  |  |  |  |  |  |  |
| Oc1c(CCc2ccc(F)cc2)c(C2CCOCC2)nn1-c1nc2ccccc2[nH]1 [Compound I-114, 1-(1H-1,3-benzodiazol-2-yl)-4-[2-(4-fluorophenyl)ethyl]-3-(oxan-4-yl)-1H-pyrazol-5-ol] | 1770 nM and 1170 nM |  | 4400 | 5560 |  |  |  | 78.2 |  | 99.5 |  |  |  |  |  |  |  |  |
| Oc1c(CCc2ccc(F)cc2)c(-c2cncc(Br)c2)nn1-c1nc2ccccc2[nH]1 [Compound I-118, 1-(1H-1,3-benzodiazol-2-yl)-3-(5-bromopyridin-3-yl)-4-[2-(4-fluorophenyl)ethyl]-1H-pyrazol-5-ol] | 95.6 nM |  |  | 0.216 |  |  |  | 101 |  | 81.6 | 17100 |  |  |  |  |  |  |  |
| Oc1c(CCc2ccc(F)cc2)c(-c2cccnc2)nn1-c1nc2ccccc2[nH]1 [Compound I-121, 1-(1H-1,3-benzodiazol-2-yl)-4-[2-(4-fluorophenyl)ethyl]-3-(pyridin-3-yl)-1H-pyrazol-5-ol] | 0.0383 nM | 474 |  | 474 | 2.58E + 01 minutes | 7.40E- 03 | 29.6 | 29.6 | 97.8 | 97.8 | 2610 |  |  |  |  |  |  |  |
| Oc1c(CC2CCCCO2)c(-c2ccc(C(F)(F)F)cc2)nn1-c1nc2ccccc2[nH]1 (stereo not shown) [Compound I-122, 1-(1H-1,3-benzodiazol-2-yl)-4-[(oxan-2-yl)methyl]-3-[4-(trifluoromethyl)phenyl]-1H-pyrazol-5-ol] | 1240 nM | 2250 |  | 1860 | 1.02E + 01 minutes | 1.07E- 02 | 95.4 | 95.4 | 75.2 | 75.2 | 11600 |  |  |  |  |  |  |  |
| COCCc1nn(-c2nc3ccccc3[nH]2)c(O)c1CCc1ccc(F)cc1 [Compound I-125, 1-(1H-1,3-benzodiazol-2-yl)-4-[2-(4-fluorophenyl)ethyl]-3-(2-methoxyethyl)-1H-pyrazol-5-ol] | 3070 nM | 3130 |  | 3130 | 8.87E + 00 minutes | 2.86E- 03 | 21.2 | 21.2 | 100 | 101.1 |  |  |  |  |  |  |  |  |
| Oc1c(CCc2ccc(F)cc2)c(-c2cnc(C(F)(F)F)nc2)nn1-c1nc2ccccc2[nH]1 [Compound I-126, 1-(1H-1,3-benzodiazol-2-yl)-4-[2-(4-fluorophenyl)ethyl]-3-[2-(trifluoromethyl)pyrimidin-5-yl]-1H-pyrazol-5-ol] |  |  |  |  |  |  |  | -13.9 |  | 107.8 |  | No Interaction |  |  |  |  |  |  |
| Cn1cccc(-c2nn(-c3nc4ccccc4[nH]3)c(O)c2CCc2ccc(F)cc2)c1=O [Compound I-127, 3-[1-(1H-1,3-benzodiazol-2-y1)-4-[2-(4-fluorophenyl)ethyl]-5-hydroxy-1H-pyrazol-3-yl]-1-methyl-1,2-dihydropyridin-2-one] |  |  |  |  |  |  |  |  |  |  |  |  | 2100 | 2.4 | 100.0 |  |  |  |
| Cc1ccn(CCc2c(-c3ccc(C(F)(F)F)cc3)nn(-c3nc4ccccc4[nH]3)c2O)n1 [Compound I-128, 1-(1H-1,3-benzodiazol-2-yl)-4-[2-(3-methyl-1H-pyrazol-1-yl)ethyl]-3-[4-(trifluoromethyl)phenyl]-1H-pyrazol-5-ol] |  |  |  |  | 1.20E + 03 minutes | 5.56E- 03 | 33.5 | 33.5 | 97.9 | 97.9 | 4330 |  |  |  |  | 7.64 | 0.146 | 7.64 |
| CC(C)(C)c1nn(-c2nc3ccccc3[nH]2)c(O)c1CCc1ccc(F)cc1 [Compound I-130, 1-(1H-1,3-benzodiazol-2-yl)-3-tert-butyl-4-[2-(4-fluorophenyl)ethyl]-1H-pyrazol-5-ol] | 702 nM | 3800 |  | 3800 | 1.15E + 01 minutes | 9.49E- 03 | 43.6 | 43.6 | 98.7 | 98.7 | 13000 |  |  |  |  |  |  |  |
| Oc1c(CCN2CCOCC2)c(-c2ccc(C(F)(F)F)cc2)nn1-c1nc2ccccc2[nH]1 [Compound I-131, 1-(1H-1,3-benzodiazol-2-yl)-4-[2-(morpholin-4-yl)ethyl]-3-[4-(trifluoromethyl)phenyl]-1H-pyrazol-5-ol] | 1360 nM | 4930 |  | 4930 | 5.16E + 00 minutes | 1.06E- 02 | 14.2 | 14.2 | 96.4 | 96.4 | 17800 |  |  |  |  |  |  |  |
| O=C1CCCN1CCc1c(-c2ccc(C(F)(F)F)cc2)nn(-c2nc3ccccc3[nH]2)c1O [Compound I-132, 1-{2-[1-(1H-1,3-benzodiazol-2-yl)-5-hydroxy-3-[4-(trifluoromethyl)phenyl]-1H-pyrazol-4-yl]ethyl}pyrrolidin-2-one] | 61.8 nM | 1700 |  | 1700 | 5.46E + 00 minutes | 5.62E- 03 | 15.7 | 15.7 | 96.5 | 96.5 | 8010 |  |  |  |  |  |  |  |
| Cn1ccc(-c2nn(-c3nc4ccccc4[nH]3)c(O)c2CCc2ccc(F)cc2)cc1=O [Compound I-133, 4-[1-(1H-1,3-benzodiazol-2-y1)-4-[2-(4-fluorophenyl)ethyl]-5-hydroxy-1H-pyrazol-3-yl]-1-methyl-1,2-dihydropyridin-2-one] | 779 nM | 1.51 |  | 1.51 | 8.59E + 03 minutes | 2.76E- 03 | 16 | 16 | 100 | 102.5 | 65300 |  |  |  |  |  |  |  |
| Cn1cc(-c2nn(-c3nc4ccccc4[nH]3)c(O)c2CCc2ccc(F)cc2)ccc1=O [Compound I-134, 5-[1-(1H-1,3-benzodiazol-2-y1)-4-[2-(4-fluorophenyl)ethyl]-5-hydroxy-1H-pyrazol-3-yl]-1-methyl-1,2-dihydropyridin-2-one] |  |  |  |  |  |  |  | 45.8 |  | 100.5 |  | No Interaction |  |  |  |  |  |  |

Reference: patent US20220380341A1, “INHIBITORS OF HIV-1 NEF FOR THE TREATMENT OF HIV DISEASE” (priority 2018, published 2022)
